The test system of one experiment is MDA-MB-231. The experiment can be described thus: Anticancer activity against human MDA-MB-231 cells assessed as inhibition of cell growth incubated for 72 hrs by MTT assay. As to conditions: MDA-MB-231, 72 h. It is filed as functional, cell-based. For orientation: Tetrazolium dyes change colour on reduction, which living cells bring about.
Experiment [1] can be described thus: Inhibition of actin (unknown origin) polymerization at 100 nM incubated for 20 mins in presence of ATP by ELISA analysis relative to control. The following applies: Homo sapiens. For orientation: In an ELISA, binding on a coated surface is turned into a signal by an enzyme label.
The next experiment is filed under the species Homo sapiens. The experiment can be described thus: Inhibition of actin (unknown origin) polymerization at 1 uM incubated for 20 mins in presence of ATP by ELISA analysis relative to control.
A short description of experiment [2]: Inhibition of actin (unknown origin) polymerization incubated for 20 mins in presence of ATP by ELISA analysis. Set-up: species or system Homo sapiens.
Another experiment deals with KB 3-1. The experiment can be described thus: Anticancer activity against human KB 3-1 cells assessed as inhibition in cell growth. The class given is functional, cell-based.
In a further experiment the test system is P388. The experiment can be described thus: Anticancer activity against mouse P388 cells assessed as cell growth inhibition. It is filed as functional, cell-based.
For a further experiment, the system named is HeLa. The experiment can be described thus: Anticancer activity against human HeLa cells assessed as inhibition of cell growth. The class given is functional, cell-based.
For experiment [3], the system named is MCF7. Nature of the experiment: Anticancer activity against human MCF7 cells assessed as inhibition of cell growth incubated for 72 hrs by SRB assay. The class given is functional, cell-based. The following applies: MCF7, 72 h.
The test system of a further experiment is HCT-116. The experiment can be described thus: Anticancer activity against human HCT-116 cells assessed as inhibition of cell growth incubated for 72 hrs by SRB assay. The class given is functional, cell-based. The following applies: HCT-116, 72 h. For orientation: Sulforhodamine B stains cellular protein and so reports cell mass.
Experiment [4] relates to HepG2. The experiment can be described thus: Anticancer activity against human HepG2 cells assessed as inhibition of cell growth incubated for 72 hrs by SRB assay. The class given is functional, cell-based. As to conditions: HepG2, 72 h.
Experiment [5] has as its system MCF7. The experiment can be described thus: Anticancer activity against human MCF7 cells assessed as inhibition of cell growth incubated for 72 hrs by MTT assay. The class given is functional, cell-based. The following applies: MCF7, 72 h.
Experiment [6] has as its system HepG2. Nature of the experiment: cells. As to conditions: Homo sapiens.
Description: Anticancer activity against human HepG2 cells assessed as inhibition of cell growth by MTT assay

Molecules are shown by their SMILES.

Turning to `CO[C@]1([C@@H]2CSC(=O)N2)C[C@H]2C[C@@H](CC[C@H](C)/C=C\C=C\CC/C(C)=C\C(=O)O2)O1`, the half-inhibitory concentration (IC50) (in general, the concentration at which inhibition is half-maximal) turned out to be 23.4 µM with MDA-MB-231 and 9.23 µM in experiment [2]. For the same compound, the inhibition (commonly the share of the control response that was lost under treatment) in experiment [1] amounted to 6%; in the experiment listed under Homo sapiens, 21%.

Take `CCN1C(=O)SC[C@H]1[C@@]1(OC)C[C@H]2C[C@@H](CC[C@H](C)/C=C\C=C\CC/C(C)=C\C(=O)O2)O1`: the figures for the half-inhibitory concentration (IC50) (in the experiment with MDA-MB-231; in [2]) were more than 50 µM and more than 10 µM, respectively. Further, the inhibition was determined as 0% in experiment [1] and 18% in the experiment listed under Homo sapiens.

With `CC(C)=CCC[C@@]1(C)C(CC[C@H]2[C@]3(C)CC[C@H](O)C(C)(C)O[C@H]3CC[C@@]2(C)O)=C(C)CC[C@H]1O` [SIPHONELLINOL D], the IC50 with KB 3-1 came to 0.0042 µM.

Consider `C#C/C=C\CCCCC#CC#CC#CCCC/C=C\C#CCO` [DEHYDROISOPHONOCHALYNOL], for which the IC50 in the experiment on P388 was found to be 0.0073 µM; in the experiment with HeLa it was 0.0169 µM.

With `C[C@@H]1C(=O)C[C@H]2[C@@H](/C1=C/C[C@H]1[C@]3(C)CC[C@H](O)C(C)(C)O[C@H]3CC[C@]1(C)O)C(C)(C)CC[C@]2(C)O` [SIPHOLENOL J], the IC50 in the experiment with KB 3-1 stood at 0.0047 µM.

For `CC1(C)CCC[C@]2(C)[C@H]3C[C@@H](O)[C@]4(C)[C@H](C=O)C(C=O)=CC[C@H]4[C@]3(C)CC[C@@H]12`, the figures for the half-maximal inhibitory concentration (IC50) with MCF7 [3], in the experiment with HCT-116 and in the experiment on HepG2 [4] were 3.3 µM, 3.4 µM and 1.7 µM, respectively.

For `CCN1C(=O)SC[C@H]1[C@@]1(O)C[C@H]2C[C@@H](CC[C@H](C)/C=C\C=C\CC/C(C)=C\C(=O)O2)O1`, the IC50 with MDA-MB-231 is 7.19 µM; with MCF7 [5], 0.95 µM; in experiment [2] it was 0.283 µM. In addition, the values for the inhibition (in experiment [1]; in the experiment filed under Homo sapiens) were 31% and 70%, respectively.

For `CC(=O)O[C@H]1C[C@H]2[C@]3(C)CC[C@H]4C(C)(C)CCC[C@]4(C)[C@H]3C[C@@H](O)[C@]2(C)C2=C1COC2=O` [SESTERSTATIN 7], the values for the IC50 with MCF7 [3], in the experiment on HCT-116 and in the experiment on HepG2 [4] were 24 µM, 26.1 µM and 19.2 µM, respectively.

For `C#C/C=C\CCCC/C=C\C#CC#CCCC/C=C\C#CCO` [CALLYSPONGENOL C], the IC50 with P388 amounted to 0.0072 µM; in the experiment with HeLa it was 0.0128 µM.

Consider `C#C/C=C\CCCCCCC#CC#CCCC/C=C\C#CCO` [CALLYSPONGENOL B], for which the IC50 in the experiment with P388 and with HeLa was 0.0326 µM each time.

Regarding `CC(=O)O[C@H]1C[C@H]2[C@]3(C)CC[C@H]4C(C)(C)CCC[C@]4(C)[C@H]3C[C@@H](O)[C@]2(C)C2=C1C(O)OC2=O` (some centres not stated), the IC50 with MCF7 [3] turned out to be 12.7 µM; with HCT-116, 3.5 µM; in the experiment with HepG2 [4], 9.6 µM.

With `C[C@@H]1CC[C@H]2[C@@H](/C1=C/C[C@H]1[C@]3(C)CCC(=O)C(C)(C)O[C@H]3CC[C@]1(C)O)C(C)(C)CC[C@]2(C)O`, the IC50 in the experiment with KB 3-1 stood at 0.0047 µM.

As to `NC(=O)C[C@@]1(O)C=C(Cl)C(=O)C(Br)=C1`, the IC50 with HeLa was found to be 0.0178 µM.

For the compound `C=C(OO)C(C)CC[C@@]1(C)C(CC[C@H]2[C@]3(C)CC[C@H](O)C(C)(C)O[C@H]3CC[C@@]2(C)O)=C(C)CC[C@H]1O` (some centres not stated), the IC50 in the experiment with KB 3-1 amounted to 0.0046 µM.

`CC1=C(CC[C@H]2[C@]3(C)CC[C@H](O)C(C)(C)O[C@H]3CC[C@]2(C)O)[C@@H]2[C@H](CC1OO)[C@@](C)(O)CCC2(C)C` (some centres not stated): in the experiment on KB 3-1, the 50% inhibitory concentration (IC50) was 0.0047 µM.

With `CC1(C)CCC[C@]2(C)[C@H]3C[C@@H](O)[C@]4(C)[C@@H](C=O)C(C=O)=CC[C@H]4[C@]3(C)CC[C@@H]12`, the IC50 turned out to be 36 µM in the experiment with MCF7 [3], 27.1 µM with HCT-116 and 23.4 µM in the experiment with HepG2 [4].

Take `CC(=O)O[C@@H]1C[C@@H]2[C@@]3(C)CCCC(C)(C)[C@@H]3CC[C@@]2(C)[C@@H]2CCC3=C(C(=O)OC3)[C@@]12C`: the IC50 in the experiment on MCF7 [3] stood at 30.7 µM; with HCT-116, 14.4 µM; in the experiment on HepG2 [4], 17.3 µM.

As to `CC(=O)O[C@@H]1C[C@@H]2[C@@]3(C)CCCC(C)(C)[C@@H]3CC[C@@]2(C)[C@@H]2C[C@H](O)C3=C([C@H](O)OC3=O)[C@@]12C`, the IC50 in the experiment with MCF7 [3] was 32.6 µM; with HCT-116, 57.5 µM; in the experiment on HepG2 [4], 21.8 µM.

Turning to `NC(=O)Cc1cc(Br)c(O)c(Br)c1O`, the IC50 in the experiment with P388 is 0.0067 µM.

Turning to `CO[C@H]1NC(=O)C2=C1[C@H](O)C[C@H]1[C@]3(C)CC[C@H]4C(C)(C)CCC[C@]4(C)[C@H]3C[C@@H](OC(C)=O)[C@]21C`, the IC50 in the experiment with MCF7 [3] is 55.4 µM; in the experiment on HCT-116, 26.5 µM; in the experiment with HepG2 [4], 25.4 µM.

Take `COc1ccc(CC(=O)N2C(=O)SC[C@H]2[C@@]2(OC)C[C@H]3C[C@@H](CC[C@H](C)/C=C\C=C\CC/C(C)=C\C(=O)O3)O2)cc1`: the results for the IC50 (with MDA-MB-231; in experiment [2]) were 26.2 µM and more than 10 µM, respectively. For the same compound, the inhibition in [1] was determined as 0%; in the experiment listed under Homo sapiens, 13%.

With `CC(=O)O[C@@H]1C[C@@H]2[C@@]3(C)CCCC(C)(C)[C@@H]3CC[C@@]2(C)[C@@H]2CC=C3C(=O)OCC3[C@@]12C` (some centres not stated), the IC50 in the experiment with MCF7 [3] was 20.9 µM; in the experiment with HCT-116, 15.4 µM; with HepG2 [4] it was 15.5 µM.

In the case of `CO[C@H]1C[C@H]2[C@]3(C)CC[C@H]4C(C)(C)CCC[C@]4(C)[C@H]3C[C@@H](OC(C)=O)[C@]2(C)C2=C1[C@@H](O)OC2=O`, the IC50 in the experiment on MCF7 [3] worked out at 40.3 µM; in the experiment with HCT-116, 22.5 µM; in the experiment with HepG2 [4], 42.5 µM.

For `CC[C@@]1(C)CCC[C@]2(C)[C@H]3C[C@H](OC(C)=O)[C@]4(C)CC(C(C)=O)=CC[C@H]4[C@]3(C)CC[C@@H]12`, the IC50 in the experiment on HepG2 [6] was found to be 0.0042 µM.

Take `CO[C@]1([C@@H]2CSC(=O)N2CCCO)C[C@H]2C[C@@H](CC[C@H](C)/C=C\C=C\CC/C(C)=C\C(=O)O2)O1`: the figures for the half-maximal inhibitory concentration (IC50) (in the experiment with MDA-MB-231; in experiment [2]) were more than 50 µM and 8.55 µM, respectively. Further, the inhibition in [1] amounted to 0%; in the experiment listed under Homo sapiens, 21%.

With `CC1=CC[C@H]2[C@H](CC[C@]2(C)O)C(C)(C)[C@@H]1CC[C@H]1[C@]2(C)CC[C@@H](O)O[C@H]2CC[C@@]1(C)O`, the IC50 in the experiment with KB 3-1 was found to be 0.0056 µM.

`CC1=C(CC[C@H]2[C@]3(C)CC[C@H](O)C(C)(C)O[C@H]3CC[C@@]2(C)O)[C@](C)(C/C=C/C(C)(C)OO)[C@H](O)CC1`: the IC50 in the experiment on KB 3-1 was 0.0039 µM.

Regarding `CC1=C(CC[C@H]2[C@]3(C)CC[C@H](O)C(C)(C)O[C@H]3CC[C@]2(C)O)[C@@H]2[C@H](CC1=O)[C@@](C)(O)CCC2(C)C` [SIPHOLENOL K], the 50% inhibitory concentration (IC50) in the experiment on KB 3-1 worked out at 0.0071 µM.

`O=C(O)[C@H](O)Cc1c[nH]c2ccc(O)cc12` [HYRTIOERECTINE C]: in the experiment with HeLa, the IC50 came out at 0.02 µM.

Turning to `C[C@H]1N[C@@H](C(=O)O)Cc2c1[nH]c1ccc(O)cc21` [HYRTIOERECTINE B], the IC50 in the experiment with HeLa is 0.02 µM.

As to `O=C(O)C(=O)c1c(-c2c[nH]c3cc(O)ccc23)ncc2[nH]c3ccc(O)cc3c12`, the 50% inhibitory concentration (IC50) in the experiment on HeLa stood at 0.026 µM.

With `CO[C@]1([C@@H]2CSC(=O)N2C)C[C@H]2C[C@@H](CC[C@H](C)/C=C\C=C\CC/C(C)=C\C(=O)O2)O1`, the IC50 in the experiment on MDA-MB-231 is 19.9 µM; in experiment [2], more than 10 µM. The inhibition in experiment [1] is 11%; in the experiment listed under Homo sapiens it was 19%.

Values taken from ChEMBL document CHEMBL5149985, “Discovery of cytotoxic natural products from Red Sea sponges: Structure and synthesis” (Eur J Med Chem, 2021).
